Data published in paper PMC11831560, “Development of the Pyrido[2,3-d]pyrimidin-7(8H)-one Scaffold toward Potent and Selective NUAK1 Inhibitors” (ACS Medicinal Chemistry Letters, 2025).

Tests used:
Experiment in all cases: Kinase panel radiometric filter binding (33P-ATP)
Assay type in all cases: biochemical
Design in all cases: dose or concentration left out as unconfirmed
PHK = system: PHK
Protocol: (§1) Table S4: AMPKA kinase activity data (ADP-Glo assay)
(§2) Compound pIC50 (Fold selectivity
(§3) Table S5. Kinase selectivity screening for 9 and 24 at 1 µM against a general kinase panel of 140 targets
(§4) in radiometric filter binding assay using 33P-γ−ATP at the MRC PPU International Centre for Kinase
(§5) Profiling, University of Dundee. pIC50 values were determined for compounds with <20% activity
(§6) Kinase activity s.d. pIC50 activity s.d. pIC50

IKKb = IKKb (Homo sapiens, UniProt O14920)
Chain of IKKb (O14920 whole entry): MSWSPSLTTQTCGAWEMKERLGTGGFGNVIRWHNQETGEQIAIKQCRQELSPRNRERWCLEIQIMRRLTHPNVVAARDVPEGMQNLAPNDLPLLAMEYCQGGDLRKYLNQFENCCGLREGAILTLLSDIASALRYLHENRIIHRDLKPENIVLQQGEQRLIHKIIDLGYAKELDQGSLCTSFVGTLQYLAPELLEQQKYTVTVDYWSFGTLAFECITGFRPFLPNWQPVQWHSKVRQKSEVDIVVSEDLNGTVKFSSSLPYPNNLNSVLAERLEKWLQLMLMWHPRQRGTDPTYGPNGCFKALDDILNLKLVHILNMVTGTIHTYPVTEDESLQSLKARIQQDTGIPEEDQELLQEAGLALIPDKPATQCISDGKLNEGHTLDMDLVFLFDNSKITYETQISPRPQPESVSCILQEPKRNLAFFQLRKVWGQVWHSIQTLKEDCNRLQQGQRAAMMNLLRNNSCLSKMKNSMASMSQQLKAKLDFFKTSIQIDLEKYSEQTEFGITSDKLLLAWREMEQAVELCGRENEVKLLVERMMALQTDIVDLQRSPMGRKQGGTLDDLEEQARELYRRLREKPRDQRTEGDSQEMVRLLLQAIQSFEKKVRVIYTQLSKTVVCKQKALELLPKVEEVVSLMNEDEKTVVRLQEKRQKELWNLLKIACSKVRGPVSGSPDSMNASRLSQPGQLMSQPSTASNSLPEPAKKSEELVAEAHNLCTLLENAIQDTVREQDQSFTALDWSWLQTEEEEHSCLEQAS
Protocol: as §1, §2, §3, §4, §5, §6

SGK1 = SGK1 (Homo sapiens, UniProt O00141)
Protocol: as §1, §2, §3, §4, §5, §6

IKKe = IKKe (Homo sapiens, UniProt Q14164)
Protocol: as §1, §2, §3, §4, §5, §6

ASK1 = ASK1 (Homo sapiens, UniProt Q99683)
Protocol: as §1, §2, §3, §4, §5, §6

EPH-B1 = EPH-B1 (Homo sapiens, UniProt P54762)
Protocol: as §1, §2, §3, §4, §5, §6

SYK = SYK (Homo sapiens, UniProt P43405)
Protocol: as §1, §2, §3, §4, §5, §6

PKCa = PKCa (Homo sapiens, UniProt P17252)
Protocol: as §1, §2, §3, §4, §5, §6

MPSK1 = MPSK1 (Homo sapiens, UniProt O75716)
Protocol: as §1, §2, §3, §4, §5, §6

TESK1 = TESK1 (Homo sapiens, UniProt Q15569)
Protocol: as §1, §2, §3, §4, §5, §6

SRPK1 = SRPK1 (Homo sapiens, UniProt Q96SB4)
Protocol: as §1, §2, §3, §4, §5, §6

PRK2 = PRK2 (Homo sapiens, UniProt Q16513)
Chain of PRK2 (Q16513 whole entry): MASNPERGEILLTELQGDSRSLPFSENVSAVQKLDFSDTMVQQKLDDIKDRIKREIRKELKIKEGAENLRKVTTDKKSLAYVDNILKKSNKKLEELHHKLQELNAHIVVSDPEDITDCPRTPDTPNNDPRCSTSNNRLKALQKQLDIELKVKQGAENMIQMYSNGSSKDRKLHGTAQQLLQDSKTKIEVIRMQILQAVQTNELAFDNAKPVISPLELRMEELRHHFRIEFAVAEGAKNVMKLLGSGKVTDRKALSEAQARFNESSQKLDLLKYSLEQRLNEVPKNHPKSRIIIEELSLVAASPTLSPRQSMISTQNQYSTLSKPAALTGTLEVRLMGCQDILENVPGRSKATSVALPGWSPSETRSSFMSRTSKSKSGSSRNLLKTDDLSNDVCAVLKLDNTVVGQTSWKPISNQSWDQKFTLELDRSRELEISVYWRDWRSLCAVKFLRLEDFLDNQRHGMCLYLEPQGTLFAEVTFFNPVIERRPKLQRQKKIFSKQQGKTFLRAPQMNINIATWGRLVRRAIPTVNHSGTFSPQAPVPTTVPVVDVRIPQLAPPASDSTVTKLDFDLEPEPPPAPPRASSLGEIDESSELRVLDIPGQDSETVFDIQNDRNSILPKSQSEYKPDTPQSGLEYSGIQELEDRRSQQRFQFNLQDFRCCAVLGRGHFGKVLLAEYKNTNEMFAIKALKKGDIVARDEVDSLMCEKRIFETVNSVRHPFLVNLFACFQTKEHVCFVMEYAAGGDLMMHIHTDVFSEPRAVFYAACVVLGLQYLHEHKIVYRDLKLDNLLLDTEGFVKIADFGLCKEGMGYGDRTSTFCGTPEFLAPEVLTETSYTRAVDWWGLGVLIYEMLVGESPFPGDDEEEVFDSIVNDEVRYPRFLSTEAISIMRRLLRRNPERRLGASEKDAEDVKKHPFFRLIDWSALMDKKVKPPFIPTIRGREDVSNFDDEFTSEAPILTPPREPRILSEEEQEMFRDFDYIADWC
Protocol: as §1, §2, §3, §4, §5, §6

MNK1 = MNK1 (Homo sapiens, UniProt Q9BUB5)
Protocol: as §1, §2, §3, §4, §5, §6

ROCK 2 = ROCK 2 (Homo sapiens, UniProt O75116)
Protocol: as §1, §2, §3, §4, §5, §6

Aurora A = Aurora A (Homo sapiens, UniProt O14965)
Protocol: as §1, §2, §3, §4, §5, §6

MSK1 = MSK1 (Homo sapiens, UniProt O75582)
Protocol: as §1, §2, §3, §4, §5, §6

EPH-B2 = EPH-B2 (Homo sapiens, UniProt P29323)
Protocol: as §1, §2, §3, §4, §5, §6

MAP4K3 = MAP4K3 (Homo sapiens, UniProt Q8IVH8)
Protocol: as §1, §2, §3, §4, §5, §6

MKK6 = MKK6 (Homo sapiens, UniProt P52564)
Chain of MKK6 (P52564 whole entry): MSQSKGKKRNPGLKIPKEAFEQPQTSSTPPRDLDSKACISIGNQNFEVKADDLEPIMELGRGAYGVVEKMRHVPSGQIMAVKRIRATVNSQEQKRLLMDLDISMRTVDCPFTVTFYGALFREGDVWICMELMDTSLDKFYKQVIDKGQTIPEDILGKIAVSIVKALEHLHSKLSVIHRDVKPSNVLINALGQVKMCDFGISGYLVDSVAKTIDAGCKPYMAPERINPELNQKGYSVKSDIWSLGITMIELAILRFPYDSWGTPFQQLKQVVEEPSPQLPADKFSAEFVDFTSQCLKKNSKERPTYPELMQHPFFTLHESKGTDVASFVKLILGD
Protocol: as §1, §2, §3, §4, §5, §6

CDK2-Cyclin A = CDK2-Cyclin A (Homo sapiens, UniProt P24941)
Protocol: as §1, §2, §3, §4, §5, §6

BRSK1 = BRSK1 (Homo sapiens, UniProt Q8TDC3)
Protocol: as §1, §2, §3, §4, §5, §6

STK33 = STK33 (Homo sapiens, UniProt Q9BYT3)
Chain of STK33 (Q9BYT3 whole entry): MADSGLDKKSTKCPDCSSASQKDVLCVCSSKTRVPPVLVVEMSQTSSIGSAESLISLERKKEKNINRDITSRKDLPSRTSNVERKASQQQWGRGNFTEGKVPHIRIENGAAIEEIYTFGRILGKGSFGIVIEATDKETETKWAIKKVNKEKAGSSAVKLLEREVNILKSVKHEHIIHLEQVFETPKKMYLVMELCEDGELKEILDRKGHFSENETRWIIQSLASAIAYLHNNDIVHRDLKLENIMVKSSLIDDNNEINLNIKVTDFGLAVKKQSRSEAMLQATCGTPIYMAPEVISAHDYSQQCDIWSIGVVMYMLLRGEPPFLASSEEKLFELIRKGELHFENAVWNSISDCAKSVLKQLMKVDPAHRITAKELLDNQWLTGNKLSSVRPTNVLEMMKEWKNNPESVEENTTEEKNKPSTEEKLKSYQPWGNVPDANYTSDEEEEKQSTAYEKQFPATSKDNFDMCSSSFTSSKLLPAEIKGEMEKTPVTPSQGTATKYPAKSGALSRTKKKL
Protocol: as §1, §2, §3, §4, §5, §6

JNK3 = JNK3 (Homo sapiens, UniProt P53779)
Protocol: as §1, §2, §3, §4, §5, §6

IRAK1 = IRAK1 (Homo sapiens, UniProt P51617)
Protocol: as §1, §2, §3, §4, §5, §6

PLK1 = PLK1 (Homo sapiens, UniProt P53350)
Protocol: as §1, §2, §3, §4, §5, §6

PKA = PKA (Homo sapiens, UniProt P17612)
Protocol: as §1, §2, §3, §4, §5, §6

GCK = GCK (Homo sapiens, UniProt Q12851)
Chain of GCK (Q12851 whole entry): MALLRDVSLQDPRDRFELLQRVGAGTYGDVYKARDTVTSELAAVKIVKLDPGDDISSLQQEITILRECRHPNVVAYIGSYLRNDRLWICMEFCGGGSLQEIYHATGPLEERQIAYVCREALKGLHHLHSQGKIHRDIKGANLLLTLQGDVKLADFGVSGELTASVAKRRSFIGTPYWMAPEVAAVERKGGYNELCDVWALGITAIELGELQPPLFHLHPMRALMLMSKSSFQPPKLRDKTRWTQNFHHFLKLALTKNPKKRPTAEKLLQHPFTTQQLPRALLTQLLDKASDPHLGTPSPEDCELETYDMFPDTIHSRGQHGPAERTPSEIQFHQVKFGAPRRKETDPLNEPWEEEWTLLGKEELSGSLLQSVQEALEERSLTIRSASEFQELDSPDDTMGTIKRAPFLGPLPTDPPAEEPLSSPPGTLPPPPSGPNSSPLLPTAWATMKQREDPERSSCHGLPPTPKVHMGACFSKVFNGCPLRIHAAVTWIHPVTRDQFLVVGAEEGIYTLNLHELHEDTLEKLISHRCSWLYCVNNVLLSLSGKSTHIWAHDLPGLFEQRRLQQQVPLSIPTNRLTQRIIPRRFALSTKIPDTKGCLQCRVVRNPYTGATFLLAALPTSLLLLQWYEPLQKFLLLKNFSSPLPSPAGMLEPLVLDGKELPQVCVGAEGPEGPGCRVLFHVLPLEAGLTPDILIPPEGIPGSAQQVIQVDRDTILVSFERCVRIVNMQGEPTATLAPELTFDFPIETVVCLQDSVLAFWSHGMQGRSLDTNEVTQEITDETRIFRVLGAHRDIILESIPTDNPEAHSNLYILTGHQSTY
Protocol: as §1, §2, §3, §4, §5, §6

CAMK1 = CAMK1 (Homo sapiens, UniProt Q14012)
Protocol: as §1, §2, §3, §4, §5, §6

TTBK2 = TTBK2 (Homo sapiens, UniProt Q6IQ55)
Protocol: as §1, §2, §3, §4, §5, §6

MST4 = MST4 (Homo sapiens, UniProt Q9P289)
Protocol: as §1, §2, §3, §4, §5, §6

DYRK2 = DYRK2 (Homo sapiens, UniProt Q92630)
Chain of DYRK2 (Q92630 whole entry): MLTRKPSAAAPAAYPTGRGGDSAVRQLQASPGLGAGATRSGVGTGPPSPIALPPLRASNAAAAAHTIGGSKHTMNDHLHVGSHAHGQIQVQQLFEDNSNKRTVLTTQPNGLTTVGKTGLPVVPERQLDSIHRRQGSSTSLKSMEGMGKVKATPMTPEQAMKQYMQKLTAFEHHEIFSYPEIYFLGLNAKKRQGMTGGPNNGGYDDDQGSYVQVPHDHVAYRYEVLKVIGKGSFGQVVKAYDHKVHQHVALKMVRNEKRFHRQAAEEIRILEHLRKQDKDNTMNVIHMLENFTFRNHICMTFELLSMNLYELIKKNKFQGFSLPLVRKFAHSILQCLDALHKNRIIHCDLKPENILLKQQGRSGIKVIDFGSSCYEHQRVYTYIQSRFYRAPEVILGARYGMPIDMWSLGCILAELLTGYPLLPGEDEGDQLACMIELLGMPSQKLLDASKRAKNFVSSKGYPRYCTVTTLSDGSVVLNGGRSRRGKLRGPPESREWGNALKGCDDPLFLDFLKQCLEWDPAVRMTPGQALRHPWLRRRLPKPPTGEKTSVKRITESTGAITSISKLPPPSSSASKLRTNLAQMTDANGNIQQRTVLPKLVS
Protocol: as §1, §2, §3, §4, §5, §6

CAMKKb = CAMKKb (Homo sapiens, UniProt Q96RR4)
Chain of CAMKKb (Q96RR4 whole entry): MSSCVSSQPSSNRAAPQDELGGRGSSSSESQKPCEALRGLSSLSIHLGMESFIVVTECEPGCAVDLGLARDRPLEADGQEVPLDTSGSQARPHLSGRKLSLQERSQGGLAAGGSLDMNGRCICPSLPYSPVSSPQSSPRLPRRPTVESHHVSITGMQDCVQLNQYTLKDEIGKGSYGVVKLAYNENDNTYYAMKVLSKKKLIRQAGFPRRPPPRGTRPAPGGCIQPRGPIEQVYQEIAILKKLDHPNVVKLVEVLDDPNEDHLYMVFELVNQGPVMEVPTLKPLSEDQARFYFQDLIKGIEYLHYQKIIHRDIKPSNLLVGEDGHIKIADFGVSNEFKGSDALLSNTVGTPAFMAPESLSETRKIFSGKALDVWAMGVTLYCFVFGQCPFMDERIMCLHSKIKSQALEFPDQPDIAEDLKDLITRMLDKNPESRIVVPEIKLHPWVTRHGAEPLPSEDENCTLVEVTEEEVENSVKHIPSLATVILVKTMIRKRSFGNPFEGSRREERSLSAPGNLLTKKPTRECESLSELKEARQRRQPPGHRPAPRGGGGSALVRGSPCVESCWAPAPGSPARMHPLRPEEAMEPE
Protocol: as §1, §2, §3, §4, §5, §6

NEK2a = NEK2a (Homo sapiens, UniProt P51955)
Protocol: as §1, §2, §3, §4, §5, §6

EPH-A4 = EPH-A4 (Homo sapiens, UniProt P54764)
Protocol: as §1, §2, §3, §4, §5, §6

MNK2 = MNK2 (Homo sapiens, UniProt Q9HBH9)
Protocol: as §1, §2, §3, §4, §5, §6

PIM1 = PIM1 (Homo sapiens, UniProt P11309)
Chain of PIM1 (P11309 whole entry): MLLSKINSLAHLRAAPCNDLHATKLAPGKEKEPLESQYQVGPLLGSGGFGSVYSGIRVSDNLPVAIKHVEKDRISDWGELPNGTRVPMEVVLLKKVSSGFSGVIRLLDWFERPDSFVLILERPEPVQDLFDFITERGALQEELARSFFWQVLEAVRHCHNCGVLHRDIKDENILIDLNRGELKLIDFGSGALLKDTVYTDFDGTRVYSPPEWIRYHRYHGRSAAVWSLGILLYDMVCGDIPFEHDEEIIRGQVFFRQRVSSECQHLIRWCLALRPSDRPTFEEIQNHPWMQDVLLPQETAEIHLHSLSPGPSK
Protocol: as §1, §2, §3, §4, §5, §6

| SMILES | % activity remaining (PHK) [%] | % activity remaining (IKKb) [%] | % activity remaining (SGK1) [%] | % activity remaining (IKKe) [%] | % activity remaining (ASK1) [%] | % activity remaining (EPH-B1) [%] | % activity remaining (SYK) [%] | % activity remaining (PKCa) [%] | % activity remaining (MPSK1) [%] | % activity remaining (TESK1) [%] | % activity remaining (SRPK1) [%] | % activity remaining (PRK2) [%] | % activity remaining (MNK1) [%] | % activity remaining (ROCK 2) [%] | % activity remaining (Aurora A) [%] | % activity remaining (MSK1) [%] | % activity remaining (EPH-B2) [%] | % activity remaining (MAP4K3) [%] | % activity remaining (MKK6) [%] | % activity remaining (CDK2-Cyclin A) [%] | other results |
| --- | --- | --- | --- | --- | --- | --- | --- | --- | --- | --- | --- | --- | --- | --- | --- | --- | --- | --- | --- | --- | --- |
| CN1C2CC1CN(c1ccc(Nc3ncc4ccn(CC5CCOCC5)c4n3)cc1)C2 [Compound 24] | 92 | 103 | 72 | 93 | 99 | 87 | 81 | 96 | 76 | 94 | 79 | 71 | 72 | 78 | 54 | 84 | 82 | 62 | 88 | 79 | % activity remaining (BRSK1): 75%; % activity remaining (STK33): 93%; % activity remaining (JNK3): 107%; % activity remaining (IRAK1): 71%; % activity remaining (PLK1): 64%; % activity remaining (PKA): 90%; % activity remaining (GCK): 89%; % activity remaining (CAMK1): 129%; % activity remaining (TTBK2): 96%; % activity remaining (MST4): 92%; % activity remaining (DYRK2): 103%; % activity remaining (CAMKKb): 43%; % activity remaining (NEK2a): 77%; % activity remaining (EPH-A4): 91%; % activity remaining (MNK2): 89%; % activity remaining (PIM1): 84% |
| Cc1cc(=O)n(C2CCCC2)c2nc(Nc3ccc(N4CC5CC(C4)N5C)cc3)ncc12 [Compound 9] | 56 | 93 | 96 | 84 | 97 | 51 | 49 | 86 | 114 | 96 | 111 | 75 | 96 | 56 | 52 | 61 | 60 | 29 | 84 | 59 | % activity remaining (BRSK1): 81%; % activity remaining (STK33): 101%; % activity remaining (JNK3): 30%; % activity remaining (IRAK1): 75%; % activity remaining (PLK1): 32%; % activity remaining (PKA): 84%; % activity remaining (GCK): 76%; % activity remaining (CAMK1): 102%; % activity remaining (TTBK2): 97%; % activity remaining (MST4): 61%; % activity remaining (DYRK2): 103%; % activity remaining (CAMKKb): 86%; % activity remaining (NEK2a): 36%; % activity remaining (EPH-A4): 90%; % activity remaining (MNK2): 56%; % activity remaining (PIM1): 90% |
